Data set [1] concerns human lymphoblastoid TK6 cells. In words: Kinetochore analysis of micronuclei. Type of data set: cell-based. As to conditions: 4 h. As for the experimental part:
For kinetochore analysis, cells were treated for 4 h with CBG 30 µM, CBD 15 µM, CBC 15 µM, CBDV 40 µM, and CBN 15 µM. The positive controls were MMS 40 µM, and vincristine sulphate 0.0121 µM; the solvent control was DMSO. After 4 h of treatment, the culture medium was renewed, and cells were exposed for 24 h to the cytokinesis inhibitor cytochalasin B (3 μg/mL). Then, cells were harvested, and slides were prepared with cytospin centrifugation. The cells were fixed in ice-cold methanol for 2 h. Kinetochores were stained overnight with undiluted primary anti-centromere antibody at 37 °C followed by 1:20 diluted FITC-conjugated secondary antibody at 37 °C for 2 h. Nuclei were counterstained with Hoechst 33,258 (5 µg/mL, 3 min). The experiment was performed one time. Per compound, 200 micronuclei were evaluated for kinetochore signal presence (Fig. 3). The evaluation was performed with a Keyence BZ-X800 microscope. The slides used in kinetochore evaluation were also evaluated for the number of induced micronuclei as described in the above paragraph cytokinesis‑block micronucleus assay.

In data set [2] the test system is TK6 cells. In words: Tubulin visualization. It is filed as cell-based, human. Conditions: 6 h; CBG 30 µM, CBD 15 µM, CBC 15 µM, CBN 15 µM; visually compared to control, not quantified. The procedure: For tubulin visualization, cells were treated with CBG 30 µM, CBD 15 µM, CBC 15 µM, CBDV 40 µM, and CBN 15 µM. The positive control was vincristine sulphate 0.0121 µM, and the solvent control was DMSO. Cells were treated for 6 h and then harvested. Slides were prepared with cytospin centrifugation. The cells were fixed in ice-cold methanol for 2 h. Following fixation, cells were permeabilized with 0.1% Tween20 in 1 × phosphate-buffered saline (PBS) for 5 min. Next, the anti-α-tubulin antibody was applied in 1:50 dilution. Antibody was diluted with 5% FCS in 1 × PBS. The antibody was incubated in a humid chamber at 4 °C for 24 h. Afterwards, the antibody was removed by washing slides twice with 0.5% Tween20 in 1 × PBS for 5 min. Nuclei were counterstained with Hoechst 33,258 (5 µg/mL, 3 min). The visualization was performed with a Keyence BZ-X800 microscope.

For data set [3], the system named is TK6 cells. Put plainly: Cell cycle analysis (flow cytometry, DAPI). Type of data set: cell-based, human. Conditions: without S9, CBG 30 µM, CBD 15 µM, CBDV 40 µM. As for the experimental part: The cells were treated with CBG 30 µM, CBD 15 µM, CBC 15 µM, CBDV 40 µM, and CBN 15 µM for 6 or 24 h. The positive control was vincristine sulphate in a concentration of 0.0121 µM for 6 h of exposure and 0.0061 µM for 24 h. The solvent control was DMSO. Furthermore, experiments with the addition of S9 mix were performed with CBDV. In these experiments, cells were treated with CBDV (40 µM) with or without 0.25% S9 mix for 6 h. DMSO with or without the S9 mix was used as control, and the positive control was the same as mentioned above. After the treatment, cells were collected, washed twice with phosphate buffered saline (PBS) and fixed with 70% ethanol for 30 min on ice. Following each described step above, cells were centrifuged at 1000 rpm, 5 min, and 4 °C. Lastly, cells were resuspended in 1% bovine serum albumin (BSA) in PBS solution and stained with DAPI in a final concentration of 1 µg/mL for 30 min on ice. The cell distribution in different cell cycle phases was analyzed with MACSQuant® Analyzer 16 Flow Cytometer using a 450/50 nm filter and MACSQuantify™ Software 2.13 (Miltenyi Biotec, Bergisch Gladbach, Germany). For each sample, 20 000 events were analyzed. Four independent experiments were performed for 6 h of treatment without metabolic activation. Three independent experiments were done for 24 h of treatment without metabolic activation and 6 h of treatment with metabolic activation.
Background: Flow cytometry measures light scatter and fluorescence of single cells or particles in a stream.

On the set-up of data set [4]: method as in Taylor et al. [2018]. As to conditions: oral solution of CBD, healthy adults, ref Taylor et al. [2018], cited from earlier work.
The subject of data set [5] is human buccal cell line TR146. Details: method as in Russo et al. ([2019]). Conditions: ref Russo et al. ([2019]), cited from earlier work.
The next data set has as its system human hepatoma cells. Details: method as in Russo et al. ([2019]). Conditions: 3 h of treatment, ref Russo et al. ([2019]); cited from earlier work.
In the next data set the test system is colon-derived cells. Also noted: method as in Aviello et al. ([2012]). As to conditions: 24 h of treatment, ref Aviello et al. ([2012]); cited from earlier work.
Data set [6] has as its system human lymphoblastoid TK6 cells. Also noted: method as in Henderson et al. ([2023]). Conditions: TK6, with and without metabolic activation 4 h, and 27 h without metabolic activation; ref Henderson et al. ([2023]); cited from earlier work.
Data set [7] deals with bone marrow or liver of rats. Also noted: method as in European Medicine Agency (EMA) ([2019]). Conditions: bone marrow or liver of rats after CBD treatment; ref European Medicine Agency (EMA) ([2019]); cited from earlier work.
Another data set has as its system bone marrow of mice. Also noted: method as in Zimmerman and Raj ([1980]). As to conditions: ref Zimmerman and Raj ([1980]); cited from earlier work.
Data set [8] relates to human gastric cancer, Sertoli and Leydig cells. Also noted: method as in Zhang et al. [2019]; Li et al. [2022], [2023]. As to conditions: 24 h of treatment; upregulated p53, reduced CDK2 and cyclin E; ref Zhang et al. [2019]; Li et al. [2022], [2023]; cited from earlier work.
Data set [9] relates to human lymphoblastoid TK6 cells. Put plainly: Cytokinesis-block micronucleus (CBMN) assay.

Like-named read-outs stand apart in the source and are kept apart here.

For the compound `C=C(C)[C@@H]1CCC(C)=C[C@H]1c1c(O)cc(CCCCC)cc1O` [CBD, cannabidiol], the “Kinetochore (+) MNi, %” value in data set [1] (of 200 micronuclei, CBG 30 µM, CBD 15 µM, CBC 15 µM, CBDV 40 µM, CBN 15 µM, MMS 40 µM, vincristine 0.0121 µM, one experiment) is 47%. The “Kinetochore (+) induced MNi” value in [1] (treatment – control (basal level of micronuclei subtracted), same concentrations) came to 63.7%. In addition, the “Multipolar and monopolar tubulin aggregation” value in the data set with TK6 cells [2] was “observed more frequently”. In addition, the “Cell cycle distribution, 6 h” value in the data set on TK6 cells [3] (6 h, CBC 15 µM, CBN 15 µM) is “no significant changes in the normal cell cycle distribution”. Besides, the “Cell cycle distribution, 24 h” value in the data set with TK6 cells [3] (24 h) is “accumulation of cells in the G1 phase”. Also, in [4] (high-fat meal), the “Mean plasma Cmax following a high-fat meal” value was 1628 ng/mL. Besides, the Cmax was 5.2 µM in data set [4] (high-fat meal, read-out: Mean plasma Cmax following a high-fat meal) and 1.1 µM in data set [4] (read-out: Mean plasma Cmax). Besides, the “Mean plasma Cmax” value in data set [4] was 335.4 ng/mL. Further, the “DNA damage (comet assay)” value in [5] (TR146, after 3 and 24 h) was “damaged DNA”; in the data set with colon-derived cells, “did not induce DNA damage”. Moreover, in [5] (TR146, with liver enzymes), the “Genotoxic properties with addition of liver enzymes (comet assay)” value is “increased the genotoxic properties”. Also, the Micronucleus induction result with human hepatoma cells is listed as “significant induction of micronuclei”; in data set [9] (4 h treatment, without metabolic activation, at least one concentration, vs solvent control), “significant induction of micronuclei”. Further, in data set [6], the Micronucleus results was “negative micronucleus results”. For the same compound, the “Micronucleus and comet assay in vivo” value in [7] is listed as “negative results”. The “Micronuclei in bone marrow in vivo” value in the data set with bone marrow of mice is reported as “induction of micronuclei”. The Cell cycle effect result in data set [8] is given as “G1 phase cell cycle arrest”. Moreover, the “BMDL (10th percentile)” value in data set [9] (10th percentile of BMD50 estimation, 4 h, micronucleus data) is 2.1 µM. In addition, the “4 h BMD50” value in data set [9] (50% increased relative genotoxicity vs controls, from micronucleus data, 4 h treatment, without S9, Bayesian BMD analysis) is on record as 8.7 µM. The “BMDU (90th percentile)” value in data set [9] (90th percentile of BMD50 estimation, 4 h, micronucleus data) is reported as 21.1 µM. Moreover, in data set [9] (4 h, CBG 30 µM, CBD 15 µM, CBC 15 µM, CBDV 40 µM, CBN 15 µM, 0.25% S9 mix), the “Number of micronuclei with S9 mix vs without” value is “significant reduction in the number of micronuclei”.

One may read the Cmax as the maximum level reached in the sampled fluid or tissue.

Values taken from publication PMC11402852, “Genotoxicity of selected cannabinoids in human lymphoblastoid TK6 cells” (Archives of Toxicology, 2024).
